Experimental data reported in PubChem BioAssay (NCI).
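Five compound concentrations were applied to cells in 96-well plates for 48 hours; endpoints were derived by simple linear interpolation of the resulting dose-response curve. At the TGI there is no net growth.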

Key:
Experiment in all cases: DTP human tumour cell line panel, 48 h
[1] = system: SW-620 colon
[2] = system: SF-268 CNS
[3] = system: PC-3 prostate
[4] = system: OVCAR-3 ovarian
[5] = system: CAKI-1 renal
[6] = system: UACC-257 melanoma
[7] = system: HCT-116 colon
[8] = system: MOLT-4 leukemia
[9] = system: HS 578T breast
[10] = system: SK-OV-3 ovarian
[11] = system: HCT-15 colon
[12] = system: NCI-H460 lung
[13] = system: HL-60(TB) leukemia
[14] = system: HT29 colon
[15] = system: HOP-62 NSCLC
[16] = system: KM12 colon
[17] = system: OVCAR-8 ovarian
[18] = system: A498 renal
[19] = system: CCRF-CEM leukemia
[20] = system: LOX IMVI melanoma
[21] = system: SNB-75 CNS
[22] = system: SF-295 CNS
[23] = system: NCI/ADR-RES ovarian
[24] = system: SF-539 CNS
[25] = system: NCI-H522 lung
[26] = system: OVCAR-5 ovarian
[27] = system: RXF 393 renal
[28] = system: IGROV1 ovarian
[29] = system: UO-31 renal
[30] = system: DU-145 prostate
[31] = system: SN12C renal
[32] = system: T-47D breast
[33] = system: SR leukemia
[34] = system: M14 melanoma
[35] = system: A549 NSCLC
[36] = system: U251 CNS
[37] = system: MCF7 breast
[38] = system: RPMI-8226 leukemia
[39] = system: UACC-62 melanoma
[40] = system: SNB-19 CNS
[41] = system: SK-MEL-28 melanoma
[42] = system: 786-0 renal
[43] = system: OVCAR-4 ovarian
[44] = system: SK-MEL-2 melanoma
[45] = system: MDA-MB-231 breast
[46] = system: HOP-92 NSCLC
[47] = system: NCI-H23 lung
[48] = system: BT-549 breast
[49] = system: SK-MEL-5 melanoma
[50] = system: EKVX NSCLC
[51] = system: MALME-3M melanoma
[52] = system: ACHN renal
[53] = system: MDA-N
[54] = system: MDA-MB-435
[55] = system: HCC-2998 colon
[56] = system: COLO 205 colon
[57] = system: NCI-H226 lung
[58] = system: K-562 leukemia
[59] = system: TK-10 renal

Nc1ccc(-c2nc3ccccc3s2)cc1Cl
TGI [1]: > 100 µM
TGI [2]: > 100 µM
TGI [3]: > 100 µM
TGI [4]: > 100 µM
TGI [5]: > 100 µM
TGI [6]: > 100 µM
TGI [7]: > 100 µM
TGI [8]: > 100 µM
TGI [9]: > 100 µM
TGI [10]: > 100 µM
TGI [11]: > 100 µM
TGI [12]: > 100 µM
TGI [13]: > 100 µM
TGI [14]: > 100 µM
TGI [15]: 72.8 µM
TGI [16]: > 100 µM
TGI [17]: > 100 µM
TGI [18]: 4.17 µM
TGI [19]: 98.3 µM
TGI [20]: > 100 µM
TGI [21]: > 93.5 µM
TGI [22]: > 100 µM
TGI [23]: > 100 µM
TGI [24]: > 100 µM
TGI [25]: > 100 µM
TGI [26]: > 100 µM
TGI [27]: > 94.2 µM
TGI [28]: > 100 µM
TGI [29]: > 100 µM
TGI [30]: > 100 µM
TGI [31]: > 100 µM
TGI [32]: > 100 µM
TGI [33]: > 100 µM
TGI [34]: > 100 µM
TGI [35]: > 100 µM
TGI [36]: > 100 µM
TGI [37]: > 100 µM
TGI [38]: > 100 µM
TGI [39]: > 100 µM
TGI [40]: > 100 µM
TGI [41]: > 100 µM
TGI [42]: > 100 µM
TGI [43]: > 100 µM
TGI [44]: > 100 µM
TGI [45]: > 100 µM
TGI [46]: > 100 µM
TGI [47]: > 100 µM
TGI [48]: > 100 µM
TGI [49]: > 100 µM
TGI [50]: > 100 µM
TGI [51]: > 100 µM
TGI [52]: > 100 µM
TGI [53]: > 100 µM
TGI [54]: > 100 µM
TGI [55]: > 100 µM
TGI [56]: > 100 µM
TGI [57]: > 100 µM
TGI [58]: > 100 µM

CN1/C(=C/C=C/C=C/C=C2C(=O)c3ccccc3C2=O)C(C)(C)c2ccccc21
TGI [1]: > 100 µM
TGI [2]: > 100 µM
TGI [4]: > 100 µM
TGI [5]: > 100 µM
TGI [6]: 54.1 µM
TGI [7]: > 100 µM
TGI [9]: > 100 µM
TGI [10]: > 100 µM
TGI [11]: > 100 µM
TGI [12]: > 100 µM
TGI [13]: > 100 µM
TGI [14]: > 100 µM
TGI [15]: > 100 µM
TGI [59]: > 100 µM
TGI [16]: > 100 µM
TGI [17]: > 100 µM
TGI [18]: 65.2 µM
TGI [19]: > 100 µM
TGI [20]: > 100 µM
TGI [21]: > 100 µM
TGI [22]: > 100 µM
TGI [23]: > 100 µM
TGI [24]: 91.3 µM
TGI [25]: > 100 µM
TGI [26]: > 100 µM
TGI [27]: 81.4 µM
TGI [28]: > 100 µM
TGI [29]: > 100 µM
TGI [30]: > 100 µM
TGI [31]: > 100 µM
TGI [32]: > 100 µM
TGI [33]: > 100 µM
TGI [34]: > 100 µM
TGI [35]: > 100 µM
TGI [37]: > 100 µM
TGI [38]: > 100 µM
TGI [39]: 58.3 µM
TGI [40]: > 100 µM
TGI [42]: > 100 µM
TGI [43]: > 100 µM
TGI [44]: 66.3 µM
TGI [45]: > 100 µM
TGI [46]: 58 µM
TGI [47]: > 100 µM
TGI [48]: 81 µM
TGI [49]: 36.1 µM
TGI [50]: > 100 µM
TGI [51]: 94.1 µM
TGI [52]: > 100 µM
TGI [53]: > 100 µM
TGI [54]: > 100 µM
TGI [56]: > 100 µM
TGI [57]: > 100 µM
TGI [58]: > 100 µM

Nc1cc2c(c3ccccc13)C(CCl)CN2C(=O)c1cc2cc(NC(=O)Nc3ccc4[nH]c(C(=O)N5CC(CCl)c6c5cc(N)c5ccccc65)cc4c3)ccc2[nH]1 (stereo not drawn)
TGI [1]: 2.07 µM
TGI [2]: 8.15 µM
TGI [3]: 12.8 µM
TGI [4]: 2.41 µM
TGI [5]: 0.444 µM
TGI [6]: 3.24 µM
TGI [7]: 1.13 µM
TGI [9]: 12.3 µM
TGI [10]: > 24.3 µM
TGI [11]: > 32.3 µM
TGI [12]: > 100 µM
TGI [14]: 2.01 µM
TGI [15]: 1.55 µM
TGI [59]: 3.75 µM
TGI [16]: 3.22 µM
TGI [18]: 0.832 µM
TGI [19]: 2.98 µM
TGI [20]: 12 µM
TGI [21]: 0.73 µM
TGI [22]: 2.99 µM
TGI [23]: 39.4 µM
TGI [24]: 1.11 µM
TGI [25]: 1.42 µM
TGI [26]: 4.22 µM
TGI [27]: 0.248 µM
TGI [28]: 1.4 µM
TGI [29]: 1.4 µM
TGI [30]: 0.704 µM
TGI [31]: > 100 µM
TGI [32]: 1.34 µM
TGI [33]: 1.13 µM
TGI [34]: 0.644 µM
TGI [37]: 1.4 µM
TGI [38]: > 23.3 µM
TGI [39]: 1.05 µM
TGI [41]: 2.52 µM
TGI [42]: 0.258 µM
TGI [43]: > 100 µM
TGI [44]: 2.17 µM
TGI [45]: 2.16 µM
TGI [46]: > 100 µM
TGI [47]: 1.02 µM
TGI [48]: 4.53 µM
TGI [49]: 0.341 µM
TGI [50]: 6.38 µM
TGI [51]: 2.03 µM
TGI [53]: 2.49 µM
TGI [54]: 4.33 µM
TGI [55]: 1.19 µM
TGI [56]: 2.07 µM
TGI [57]: 1.81 µM
TGI [58]: > 100 µM

O=C(O)C(Cc1cnc[nH]1)N1C(=O)c2ccccc2C1=O (stereo not drawn)
TGI [1]: > 100 µM
TGI [2]: > 100 µM
TGI [3]: > 100 µM
TGI [4]: > 100 µM
TGI [5]: > 100 µM
TGI [6]: > 100 µM
TGI [7]: > 100 µM
TGI [8]: > 100 µM
TGI [9]: > 100 µM
TGI [11]: > 100 µM
TGI [12]: > 100 µM
TGI [14]: > 100 µM
TGI [15]: > 100 µM
TGI [59]: > 100 µM
TGI [16]: > 100 µM
TGI [17]: > 100 µM
TGI [18]: > 100 µM
TGI [20]: > 100 µM
TGI [21]: > 100 µM
TGI [22]: 98.5 µM
TGI [23]: > 100 µM
TGI [25]: > 100 µM
TGI [26]: > 100 µM
TGI [27]: > 100 µM
TGI [28]: > 100 µM
TGI [29]: > 100 µM
TGI [30]: > 100 µM
TGI [31]: > 100 µM
TGI [32]: > 100 µM
TGI [33]: > 100 µM
TGI [34]: > 100 µM
TGI [35]: > 100 µM
TGI [36]: > 100 µM
TGI [37]: > 100 µM
TGI [38]: > 100 µM
TGI [39]: > 100 µM
TGI [40]: > 100 µM
TGI [41]: > 100 µM
TGI [42]: > 100 µM
TGI [43]: > 100 µM
TGI [44]: > 100 µM
TGI [45]: > 100 µM
TGI [46]: > 100 µM
TGI [47]: > 100 µM
TGI [48]: > 100 µM
TGI [49]: > 100 µM
TGI [50]: > 100 µM
TGI [51]: > 100 µM
TGI [52]: > 100 µM
TGI [53]: > 100 µM
TGI [54]: > 100 µM
TGI [56]: > 100 µM
TGI [57]: > 100 µM
TGI [58]: > 100 µM
